According to PMC3214022, “Plasmodium falciparum Parasites Are Killed by a Transition State Analogue of Purine Nucleoside Phosphorylase in a Primate Animal Model” (PLoS ONE, 2011):
“And” between values parts separate entries of the source, which are not always exact repeats. Equal values may be shown once.

Assay: Weights, CBC and blood chemistry, Table S1 sheet PD-1 (efficacy study in P. falciparum-infected Aotus)
Type: in vivo, Aotus lemurinus lemurinus
Conditions: IV 10 mg/kg once a day/3 days
Description: Laboratory bred Aotus lemurinus lemurinus monkeys (0.75–0.89 kg) were maintained as described. […] Blood samples were collected before the treatment started (t = 0), 0.05 h, 0.5 h, 1 h, 2 h, 6 h, 24 h, 48 h, and 6, 12 and 18 days after the first dose from each monkey and processed as described below. Pharmacokinetic parameters were calculated using PKSolver. For efficacy studies, Aotus monkeys were inoculated intravenously with 5×10^6 parasites of the FVO strain of P. falciparum in an approved treatment protocol. […] Parasitaemia was determined by Giemsa-stained thick blood smears prepared daily from the marginal ear vein [41]. Blood samples were collected from each monkey and transferred to tubes containing lithium heparin, centrifuged and both plasma and blood cells were frozen at −80 °C until analysis. Animals received a physical examination and blood chemistry profiles were monitored after treatment as described previously. Any monkey not responding appropriately to treatment was cured of its infection with mefloquine (40 mg kg^−1). […] The day of clearance is defined as the first of three consecutive days in which the thick blood films are parasite negative. The day of recrudescence is the first of three consecutive days of positive thick blood films after a period of clearance. Suppression is defined as a transient decrease in the parasite count post-treatment without clearance.

Structure (SMILES): Nc1nc2c(CN3CC(O)C(CO)C3)c[nH]c2c(=O)[nH]1 (centres unmarked) [BCX4945, 4′-deaza-1′-aza-2′-deoxy-1′-(9-methylene)-Immucillin-G]
- Blood Urea Nitrogen (day 9, 10 mg/kg): 10.65 mg/dL and 14.3 mg/dL and 10.85 mg/dL and 10.75 mg/dL and 11.6 mg/dL and 17.75 mg/dL
- Creatinine (day 9, 10 mg/kg): 0.59 mg/dL and 0.587 mg/dL and 0.522 mg/dL and 0.609 mg/dL and 0.7 mg/dL and 0.665 mg/dL
- Erythrocytes (day 9, 10 mg/kg): 4.53e+06 µL⁻¹ and 4.52e+06 µL⁻¹ and 3.97e+06 µL⁻¹ and 3.87e+06 µL⁻¹ and 3.32e+06 µL⁻¹ and 5.16e+06 µL⁻¹
- Granulocytes (%) (day 9, 10 mg/kg): 19.7% and 21.4% and 19.2% and 30% and 21.1% and 36.1%
- Hematocrit (day 9, 10 mg/kg): 36.1% and 34.4% and 30.6% and 31.6% and 28.1% and 40.4%
- Hemoglobin (day 9, 10 mg/kg): 12 g/dL and 11.8 g/dL and 10.3 g/dL and 10.5 g/dL and 9.3 g/dL and 13.8 g/dL
- Leucocytes (day 9, 10 mg/kg): 16700 µL⁻¹ and 22100 µL⁻¹ and 19500 µL⁻¹ and 11100 µL⁻¹ and 19200 µL⁻¹ and 19700 µL⁻¹
- Lymphocytes (%) (day 9, 10 mg/kg): 65.5% and 44.6% and 64.7% and 56.2% and 66.9% and 50.4%
- Mean Corpuscular Hemoglobin (day 9, 10 mg/kg): 26.5 pg and 26.1 pg and 25.9 pg and 27.1 pg and 28.1 pg and 26.7 pg
- Mean Corpuscular Volume (day 9, 10 mg/kg): 79.7 fL and 76.1 fL and 77.1 fL and 81.8 fL and 84.7 fL and 78.2 fL
- Mean Hemoglobin Content (day 9, 10 mg/kg): 33.3 g/dL and 34.4 g/dL and 33.6 g/dL and 33.2 g/dL and 33.1 g/dL and 34.1 g/dL
- Mean Platelet Volume (day 9, 10 mg/kg): 11.9 fL and 15.2 fL and 12.6 fL and 13.1 fL and 13.2 fL and 13.5 fL
- Platelets (day 9, 10 mg/kg): 321000 µL⁻¹ and 270000 µL⁻¹ and 322000 µL⁻¹ and 237000 µL⁻¹ and 267000 µL⁻¹ and 336000 µL⁻¹
- Red Cell Distribution Width (day 9, 10 mg/kg): 12.8% and 11.8% and 11.5% and 13.6% and 12.1%
- Reticulocytes (day 9, 10 mg/kg): 1.7% and 1.2% and 2.3% and 1.8% and 1.3% and 1.9%
- WEIGHT (day 9, 10 mg/kg): 780 g and 698 g and 888 g and 790 g and 930 g and 685 g
- Creatinine (day 12, 10 mg/kg): 0.555 mg/dL and 0.539 mg/dL and <0.500 mg/dL and 0.508 mg/dL and 0.604 mg/dL and 0.605 mg/dL
- Erythrocytes (day 12, 10 mg/kg): 4.01e+06 µL⁻¹ and 4.03e+06 µL⁻¹ and 3.46e+06 µL⁻¹ and 5.43e+06 µL⁻¹ and 2.96e+06 µL⁻¹ and 4.66e+06 µL⁻¹
- Glutamate Pyruvate Transaminase (day 12, 10 mg/kg): 41.8 U/L and 40.8 U/L and 52.6 U/L and 38.7 U/L and 64.9 U/L and 39.6 U/L
- Hematocrit (day 12, 10 mg/kg): 31.6% and 31.2% and 27.1% and 43.9% and 26.3% and 36.3%
- Hemoglobin (day 12, 10 mg/kg): 10.9 g/dL and 10.7 g/dL and 9.2 g/dL and 14.9 g/dL and 8.6 g/dL and 12.7 g/dL
- Leucocytes (day 12, 10 mg/kg): 36300 µL⁻¹ and 31000 µL⁻¹ and 41200 µL⁻¹ and 29300 µL⁻¹ and 42600 µL⁻¹ and 45600 µL⁻¹
- Lymphocytes (%) (day 12, 10 mg/kg): 72.6% and 57.1% and 73% and 56% and 73.9% and 60.8%
- Lymphocytes (x 103/ul) (day 12, 10 mg/kg): 26.4 x 103/ul and 17.7 x 103/ul and 30.1 x 103/ul and 16.4 x 103/ul and 31.5 x 103/ul and 27.7 x 103/ul
- Mean Corpuscular Hemoglobin (day 12, 10 mg/kg): 27.2 pg and 26.5 pg and 27.5 pg and 29 pg and 27.4 pg
- Mean Corpuscular Volume (day 12, 10 mg/kg): 78.8 fL and 77.3 fL and 78.4 fL and 80.9 fL and 88.8 fL and 78 fL
- Mean Hemoglobin Content (day 12, 10 mg/kg): 34.5 g/dL and 34.3 g/dL and 33.8 g/dL and 34.1 g/dL and 32.7 g/dL and 35.1 g/dL
- Mean Platelet Volume (day 12, 10 mg/kg): 17.3 fL and 13.7 fL and 12.9 fL and 18.2 fL and 11.1 fL
- Monocytes (x 103/ul) (day 12, 10 mg/kg): 3.5 x 103/ul and 4.3 x 103/ul and 6 x 103/ul and 4.1 x 103/ul
- Red Cell Distribution Width (day 12, 10 mg/kg): 13.5% and 12.4% and 12.7% and 11.4% and 14.8% and 12.2%
- Reticulocytes (day 12, 10 mg/kg): 1.7% and 2.1% and 2.5% and 2.6% and 1.3%
- WEIGHT (day 12, 10 mg/kg): 766 g and 680 g and 832 g and 849 g and 684 g
- Blood Urea Nitrogen (day 19, 10 mg/kg): 19.25 mg/dL and <10.0 mg/dL and 15.3 mg/dL and 13.8 mg/dL and 15.4 mg/dL and 13.5 mg/dL
- Creatinine (day 19, 10 mg/kg): 0.514 mg/dL and <0.500 mg/dL and 0.504 mg/dL and 0.562 mg/dL and 0.507 mg/dL
- Erythrocytes (day 19, 10 mg/kg): 4.88e+06 µL⁻¹ and 4.44e+06 µL⁻¹ and 4.27e+06 µL⁻¹ and 4e+06 µL⁻¹ and 4.12e+06 µL⁻¹ and 5.22e+06 µL⁻¹
- Glutamate Pyruvate Transaminase (day 19, 10 mg/kg): 29 U/L and 20.1 U/L and 31.3 U/L and 23.9 U/L and 26.3 U/L and 21.8 U/L
- Hemoglobin (day 19, 10 mg/kg): 14.2 g/dL and 11.9 g/dL and 11.8 g/dL and 12.5 g/dL
- Leucocytes (day 19, 10 mg/kg): 30100 µL⁻¹ and 23700 µL⁻¹ and 16700 µL⁻¹ and 22900 µL⁻¹ and 19600 µL⁻¹ and 17100 µL⁻¹
- Lymphocytes (%) (day 19, 10 mg/kg): 87.7% and 48.9% and 76.9% and 73.7% and 77.1% and 48.7%
- Mean Corpuscular Hemoglobin (day 19, 10 mg/kg): 29 pg and 26.8 pg and 27.5 pg and 29.7 pg and 30.3 pg and 27.1 pg
- Mean Corpuscular Volume (day 19, 10 mg/kg): 87.8 fL and 79.1 fL and 84.9 fL and 91.2 fL and 93.4 fL and 81.3 fL
- Mean Hemoglobin Content (day 19, 10 mg/kg): 33.1 g/dL and 33.9 g/dL and 32.4 g/dL and 32.6 g/dL and 32.5 g/dL and 33.4 g/dL
- Mean Platelet Volume (day 19, 10 mg/kg): 15.6 fL and 12.8 fL and 12.3 fL and 14.4 fL and 14.8 fL and 13.8 fL
- Monocytes (%) (day 19, 10 mg/kg): 5.6% and 6.4% and 11.4% and 6.6%
- Red Cell Distribution Width (day 19, 10 mg/kg): 23.9% and 15.2% and 21.7% and 23.4% and 22.5% and 17.2%
- Reticulocytes (day 19, 10 mg/kg): 1.5% and 2% and 2.3% and 2.2%
- WEIGHT (day 19, 10 mg/kg): 777 g and 684 g and 852 g and 754 g and 875 g and 690 g
- Blood Urea Nitrogen (day 25, 10 mg/kg): 27.95 mg/dL and 24.85 mg/dL and 23.3 mg/dL and 19.35 mg/dL and 20.25 mg/dL
- Creatinine (day 25, 10 mg/kg): <0.500 mg/dL and 0.563 mg/dL and 0.659 mg/dL and 0.585 mg/dL
- Erythrocytes (day 25, 10 mg/kg): 4.42e+06 µL⁻¹ and 5.34e+06 µL⁻¹ and 5.57e+06 µL⁻¹ and 4.57e+06 µL⁻¹ and 4.75e+06 µL⁻¹
- Glutamate Pyruvate Transaminase (day 25, 10 mg/kg): 21.7 U/L and 23.8 U/L and 25 U/L and 26.2 U/L
- Hematocrit (day 25, 10 mg/kg): 35.7% and 44.6% and 40.2% and 42.6%
- Hemoglobin (day 25, 10 mg/kg): 12.1 g/dL and 15.2 g/dL and 15.3 g/dL and 13.4 g/dL and 14.4 g/dL
- Leucocytes (day 25, 10 mg/kg): 11500 µL⁻¹ and 12400 µL⁻¹ and 15400 µL⁻¹ and 12700 µL⁻¹ and 10500 µL⁻¹
- Lymphocytes (%) (day 25, 10 mg/kg): 72.6% and 81.9% and 63.9% and 71.1% and 64.3%
- Lymphocytes (x 103/ul) (day 25, 10 mg/kg): 8.3 x 103/ul and 10.2 x 103/ul and 9.8 x 103/ul and 9 x 103/ul and 6.8 x 103/ul
- Mean Corpuscular Hemoglobin (day 25, 10 mg/kg): 27.3 pg and 28.5 pg and 27.5 pg and 29.3 pg and 30.2 pg
- Mean Corpuscular Volume (day 25, 10 mg/kg): 80.8 fL and 83.6 fL and 80.1 fL and 88.1 fL and 89.5 fL
- Mean Hemoglobin Content (day 25, 10 mg/kg): 33.8 g/dL and 34.1 g/dL and 34.3 g/dL and 33.2 g/dL and 33.7 g/dL
- Mean Platelet Volume (day 25, 10 mg/kg): 12 fL and 13 fL and 11 fL
- Monocytes (%) (day 25, 10 mg/kg): 11.3% and 6.2% and 5.7% and 7.9% and 8.2%
- Monocytes (x 103/ul) (day 25, 10 mg/kg): 1.3 x 103/ul and 0.8 x 103/ul and 0.9 x 103/ul and 1 x 103/ul
- Platelets (day 25, 10 mg/kg): 342000 µL⁻¹ and 291000 µL⁻¹ and 454000 µL⁻¹ and 397000 µL⁻¹ and 336000 µL⁻¹
- Red Cell Distribution Width (day 25, 10 mg/kg): 16.7% and 18.3% and 15.7% and 19.1% and 17.5%
- Reticulocytes (day 25, 10 mg/kg): 2.1% and 1.8% and 1.7% and 2.6% and 2.4%
- WEIGHT (day 25, 10 mg/kg): 825 g and 760 g and 690 g and 687 g
- Blood Urea Nitrogen (day 26): 16.65 mg/dL
- Creatinine (day 26): 0.537 mg/dL
- Erythrocytes (day 26): 4.54e+06 µL⁻¹
- Glutamate Pyruvate Transaminase (day 26): 18.2 U/L
- Granulocytes (%) (day 26): 46.7%
- Granulocytes (x 103/ul) (day 26): 7.7 x 103/ul
- Hematocrit (day 26): 35.9%
- Hemoglobin (day 26): 12 g/dL
- Leucocytes (day 26): 16500 µL⁻¹
- Lymphocytes (%) (day 26): 45.8%
- Lymphocytes (x 103/ul) (day 26): 7.6 x 103/ul
- Mean Corpuscular Hemoglobin (day 26): 26.3 pg
- Mean Corpuscular Volume (day 26): 78.9 fL
- Mean Hemoglobin Content (day 26): 33.4 g/dL
- Mean Platelet Volume (day 26): 12.5 fL
- Monocytes (%) (day 26): 7.5%
- Monocytes (x 103/ul) (day 26): 1.2 x 103/ul
- Platelets (day 26): 314000 µL⁻¹
- Red Cell Distribution Width (day 26): 16.2%
- Reticulocytes (day 26): 1.9%
- WEIGHT (day 26): 910 g
- Creatinine (day -2, 10 mg/kg): 0.623 mg/dL and 0.539 mg/dL and 0.583 mg/dL and 0.677 mg/dL and 0.579 mg/dL and 0.564 mg/dL
- Erythrocytes (day -2, 10 mg/kg): 6.51e+06 µL⁻¹ and 6.11e+06 µL⁻¹ and 6.26e+06 µL⁻¹ and 5.03e+06 µL⁻¹ and 5.52e+06 µL⁻¹ and 5.2e+06 µL⁻¹
- Hematocrit (day -2, 10 mg/kg): 50% and 47.6% and 40.6% and 44.3% and 42.4%
- Hemoglobin (day -2, 10 mg/kg): 17.2 g/dL and 16.6 g/dL and 16.4 g/dL and 14.2 g/dL and 15.2 g/dL
- Leucocytes (day -2, 10 mg/kg): 18500 µL⁻¹ and 15700 µL⁻¹ and 15900 µL⁻¹ and 16400 µL⁻¹ and 10600 µL⁻¹ and 21000 µL⁻¹
- Mean Corpuscular Hemoglobin (day -2, 10 mg/kg): 26.4 pg and 27.2 pg and 26.3 pg and 28.2 pg and 27.5 pg and 33.1 pg
- Mean Corpuscular Volume (day -2, 10 mg/kg): 76.8 fL and 78 fL and 76.1 fL and 80.7 fL and 80.2 fL and 81.5 fL
- Mean Hemoglobin Content (day -2, 10 mg/kg): 34.4 g/dL and 34.9 g/dL and 34.5 g/dL and 34.3 g/dL and 40.6 g/dL
